{"source": "patent US7653490B2", "about": "“Nuclear magnetic resonance assembly of chemical entities” (Triad Liquidating Company LLC, priority 2001, dated 2010)", "key": {"p38α [1]": {"molecular_target": "T1, p38α (Homo sapiens, UniProt Q16539)", "T1 sequence (Q16539 whole entry)": "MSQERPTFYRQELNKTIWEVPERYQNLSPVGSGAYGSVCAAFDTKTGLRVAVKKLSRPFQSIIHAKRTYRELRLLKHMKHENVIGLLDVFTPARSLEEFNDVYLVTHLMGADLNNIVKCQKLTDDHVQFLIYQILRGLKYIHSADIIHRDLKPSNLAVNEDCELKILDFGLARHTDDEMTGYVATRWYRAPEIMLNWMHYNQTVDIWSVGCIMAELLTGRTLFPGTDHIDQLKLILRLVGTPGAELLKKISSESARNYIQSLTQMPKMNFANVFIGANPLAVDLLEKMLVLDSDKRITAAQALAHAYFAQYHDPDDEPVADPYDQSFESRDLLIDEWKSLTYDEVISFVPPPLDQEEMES", "assay": "WaterLOGSY competition experiments (displacement of PBBA)", "format": "binding", "from_the_text": "A peptide having the sequence […] (SEQ ID NO:1) is a known phosphorylation substrate for p38α as described, for example, in Chen et al. Biochemistry 39:2079-2087 (2000). […] This site is shown in the lower panel of FIG. 7, and is referred to as the SL (specificity ligand) site, since extending a bi-ligand library into this site off of an ATP mimic might provide additional specificity."}, "p38α MAP kinase": {"molecular_target": "p38α MAP kinase (Homo sapiens, UniProt Q16539)", "sequence (Q16539 whole entry, the tested form may be a part)": "as the sequence (Q16539 whole entry) above", "assay": "Phosphorylation of myelin basic protein (MBP) by p38α", "format": "biochemical", "experimental": "The TTM2001.101.A09 bi-ligand compound and the fragments from which it was constructed were tested as inhibitors of p38α enzymatic activity in an assay measuring phosphorylation of myelin basic protein (MBP) by p38α."}, "p38α [2]": {"molecular_target": "T1, p38α", "assay": "1D 1H NMR line broadening", "format": "binding", "conditions": "50 micromolar compound, 10 μM p38α", "experimental": "The ability of TTM2001.101.A09 to bind to p38α was determined by comparing the degree of line broadening in 1D ^1H NMR spectra for the compound in the presence of p38α compared to in the absence of p38α."}, "[3]": {"molecular_target": "unactivated p38α MAP kinase (Homo sapiens, UniProt Q16539)", "sequence (Q16539 whole entry)": "as above", "assay": "WaterLOGSY NMR binding screen", "conditions": "10 to 30 micromolar p38α, 0.1 to 1.0 millimolar compound, 4° C.", "from_the_text": "A library of 29 PBBA structure analogs was screened against unlabeled p38α MAP kinase (p38α) as follows. Samples containing 10 to 30 micromolar concentration of unactivated p38α MAP kinase and 0.1 to 1.0 millimolar concentration of one of the PBBA structure analogs were obtained. The samples were screened using WaterLOGSY with saturations times of 2 s (frequency selective excitation via a train of 232 6 ms π pulses with a GAUSS profile at an 80 Hz RF field strength) with solvent suspension using WATERGATE at 4° C. WaterLOGSY is further described in Dalvit et al. J. Biomol. NMR 21:349-59 (2001) Dalvit et al. J. Magn. Res. B112:282-288 (1996) and Dalvit et al., J. Biomol. NMR 11:437-444 (1998).\nA number of PBBA related compounds were screened with WaterLOGSY to identify those that bound to p38α. Of the compounds shown in FIG. 6, two were identified by cross-saturation experiments (with 10 μM unactivated p38α, 1.5 s to 3.0 s saturation with a train of IBURP pulses) to interact with TTM2001.082.A10 as indicated by the arrows."}, "p38α [4]": {"molecular_target": "T1, p38α", "assay": "Fluorescence polarization displacement of fluorescently tagged staurosporine", "format": "binding"}, "[5]": {"molecular_target": "activated p38α protein kinase (Homo sapiens, UniProt Q16539)", "sequence (Q16539 whole entry)": "as above", "assay": "1D saturation transfer difference with selective saturation of antenna methyl of TTM2002.143.A27", "format": "binding", "conditions": "2 s saturation at 3.0 ppm, 4° C.", "from_the_text": "The 25 compounds from the MOTIF library described in Example IV were screened for proximal binding near the ligand-probe as follows. Samples were obtained containing 100 to 1000 micromolar concentrations of the TTM2002.143.A27 ligand-probe, 10 to 50 micromolar concentrations of activated p38α protein kinase, and one of the 25 compounds at a concentration of 100 to 1000 micromolar. Samples were screened for the presence of second ligands binding proximal to the common ligand-probe by (^1H) 1 dimensional saturation transfer difference experiments using saturations times of 2 s (frequency selective excitation via a train of 232 6 ms τ pulses with a GAUSS profile at an 80 Hz RF field strength) with solvent suspension using WATERGATE at 4° C."}}}
{"compound": "SEQ ID NO:1: peptide IPTTPITTTYFFFKKK, known phosphorylation substrate for p38α", "values": [{"measurement": "ability to displace PBBA from p38α, WaterLOGSY competition", "setting": "p38α [1]", "result": "could not displace PBBA from p38α"}]}
{"compound": "O=C(O)c1ccc(CCCCCCSCc2cc(-n3cnc4cc(C(=O)O)ccc43)ccc2F)cc1", "note": "[TTM2001.101.A09]", "values": [{"measurement": "Kd", "setting": "p38α MAP kinase; IC50 corrected for high ATP concentration, read-out: Kd for binding between p38α and compound", "result": "~0.3", "unit": "µM"}, {"measurement": "IC50", "setting": "p38α MAP kinase; read-out: IC50, inhibition of myelin basic protein phosphorylation by p38α", "result": 1.7, "unit": "µM"}, {"measurement": "fold tighter than either of the starting fragments", "setting": "p38α MAP kinase; versus starting fragments PBBA and TTM2001.082.B09", "result": "greater than 100 fold"}, {"measurement": "line broadening in 1D 1H NMR spectrum in presence of p38α", "setting": "p38α [2]", "result": "significant line-broadening"}]}
{"compound": "CCCCc1ccc(C(=O)O)cc1", "note": "[PBBA, p-butyl benzoic acid]", "values": [{"measurement": "inhibition of phosphorylation of MBP protein by p38α (in words)", "setting": "p38α MAP kinase", "result": "inhibit phosphorylation of MBP protein by p38α"}, {"measurement": "binding to p38α by WaterLOGSY cross-saturation", "setting": "[3]", "result": "showed cross-saturation effects with p38α indicating binding to the protein"}, {"measurement": "ability to displace fluorescently tagged staurosporine", "setting": "p38α [4]", "result": "not able to displace a fluorescently tagged staurosporine"}]}
{"compound": "CCCCCc1ccc(N)cc1", "note": "[PPA, p-pentyl-aniline]", "values": [{"measurement": "intensity change of aromatic protons on selective saturation of antenna methyl protons", "setting": "[5]", "result": "showed a reduction in the intensity on selective saturation of the methyl protons"}]}
